Literature values as cited in PMC11693862 (Acta Biochimica et Biophysica Sinica, 2024).

Legend:
[1] = system: SARS-CoV and HCoV-229E; conditions: cited from earlier work
[2] = system: Mpros of HCoV-NL63, HCoV-HUK1, MERS-CoV, and SARS-CoV; conditions: cited from earlier work
[3] = in vivo; cited from earlier work

Structure (SMILES): COc1cccc2[nH]c(C(=O)NC(CC(C)C)C(=O)NC(CC3CCNC3=O)C(=O)CO)cc12 (stereo not drawn) [PF-00835231]
- Antiviral activity, semi-maximum effective concentration (EC50) [1]: very low
- Inhibition of Mpros of HCoV-NL63, HCoV-HUK1, MERS-CoV, and SARS-CoV [2]: inhibits
- Oral bio-availability [3]: relatively poor
